From US9309238B2, “Imidazo [1,2-a]pyridine compounds, synthesis thereof, and methods of using same” (priority 2009, dated 2016) come the findings set out here.

Holding throughout (test): microbe, parasite or virus in culture
Assay [1] concerns rRMP (Rifampicin-resistant TB strain). It counts as cell-based, Mycobacterium tuberculosis.
For assay [2], the system named is rINH (Isoniazid-resistant TB strain). Type of assay: cell-based, Mycobacterium tuberculosis.
Assay [3] has as its system rSM (Streptomycin-resistant TB strain). It counts as cell-based, Mycobacterium tuberculosis.
Assay [4] concerns rKM (Kanamycin-resistant TB strain). It counts as cell-based, Mycobacterium tuberculosis.
Assay [5] relates to extreme drug-resistant TB strain HREPKOTh. It counts as cell-based. The conditions noted are these: Mycobacterium tuberculosis.
The test system of assay [6] is MDR-TB strain resistant to HREZRbTh. Type of assay: cell-based. The settings on record: Mycobacterium tuberculosis.
Assay [7] concerns extreme drug-resistant TB strain HRESPOCTh. It counts as cell-based. The settings on record: Mycobacterium tuberculosis.
The subject of assay [8] is MDR-TB strain resistant to HREZSKPTh. It counts as cell-based. The settings on record: Mycobacterium tuberculosis.
Assay [9] deals with MDR-TB strain resistant to HREKP. Type of assay: cell-based. The settings on record: Mycobacterium tuberculosis.
The subject of assay [10] is MDR-TB strain resistant to HRERb* (column 5). Type of assay: cell-based. The settings on record: Mycobacterium tuberculosis.
Assay [11] relates to extreme drug-resistant TB strain HRESPO. Type of assay: cell-based. The conditions noted are these: Mycobacterium tuberculosis.
Assay [12] deals with MDR-TB strain resistant to HRESP. Type of assay: cell-based. The conditions noted are these: Mycobacterium tuberculosis.
The subject of assay [13] is MDR-TB strain resistant to HRERb* (column 8). It counts as cell-based. The settings on record: Mycobacterium tuberculosis.
Assay [14] has as its system MDR-TB strain resistant to HRERb* (column 7). It counts as cell-based. The settings on record: Mycobacterium tuberculosis.
The test system of assay [15] is MDR-TB strain resistant to HREZSP. It counts as cell-based. The settings on record: Mycobacterium tuberculosis.
Assay [16] has as its system MDR-TB strain resistant to HCPTh. It counts as cell-based. The settings on record: Mycobacterium tuberculosis.
Where [17] appears, read: single drug resistant strain rRMP.
Setting [18] is: single drug resistant strain rINH.
The mark [19] stands for this setting: single drug resistant strain rKM.

In brackets after ≈: the same amount, converted by molar mass. Like-named read-outs stand apart in the source and are kept apart here. A value given as a limit tells only on which side of the number the result lay.

With `COc1c(N2C[C@@H]3CCCN[C@@H]3C2)c(F)cc2c(=O)c(C(=O)O)cn(C3CC3)c12` [Moxifloxacin, reference compound], the MIC90 is 0.1 µM (≈ 0.0401 µg/mL) in assay [1] (Mycobacterium tuberculosis), 0.12 µM (≈ 0.0482 µg/mL) in assay [2] (Mycobacterium tuberculosis), 0.15 µM (≈ 0.0602 µg/mL) in assay [3] (Mycobacterium tuberculosis) and 0.24 µM (≈ 0.0963 µg/mL) in assay [4] (Mycobacterium tuberculosis).

As to `Cc1ccn2c(C(=O)NCc3ncc(C(F)(F)F)cc3Cl)c(C)nc2c1` [ND-9902], the MIC90 is 0.74 µM (≈ 0.283 µg/mL) in assay [1] (setting [17]), 1.10 µM (≈ 0.421 µg/mL) in assay [2] (setting [18]), 2.95 µM (≈ 1.13 µg/mL) in assay [3] and 2.96 µM (≈ 1.13 µg/mL) in assay [4] (setting [19]).

With `CO[C@H]1/C=C/O[C@@]2(C)Oc3c(C)c(O)c4c(O)c(c(/C=N/N5CCN(C)CC5)c(O)c4c3C2=O)NC(=O)/C(C)=C\C=C\[C@H](C)[C@H](O)[C@@H](C)[C@@H](O)[C@@H](C)[C@H](OC(C)=O)[C@@H]1C` [RMP, Rifampicin, reference compound], the figures for the MIC90 in assay [1] (Mycobacterium tuberculosis) and in assay [2] (Mycobacterium tuberculosis) were more than 1 µM and 0.01 µM (≈ 0.00823 µg/mL), respectively.

Turning to `Cc1ccn2c(C(=O)NCc3cccc(OC(C)C)c3)c(C)nc2c1` [ND-9872], the MIC90 in assay [1] (setting [17]) came to 0.23 µM (≈ 0.0776 µg/mL); in assay [2] (setting [18]), 0.28 µM (≈ 0.0945 µg/mL); in [3], 0.87 µM (≈ 0.294 µg/mL); in [4] (setting [19]) it was 0.89 µM (≈ 0.3 µg/mL).

In the case of `Cc1ccc2nc(C)c(C(=O)NCc3ccc(S(C)(=O)=O)cc3)n2c1` [ND-9965], the MIC90 in assay [1] (setting [17]) was 0.54 µM (≈ 0.193 µg/mL); in assay [2] (setting [18]), 0.57 µM (≈ 0.204 µg/mL); in [3] it was 2.31 µM (≈ 0.826 µg/mL); in [4] (setting [19]), 1.98 µM (≈ 0.708 µg/mL).

With `Cc1ccn2c(C(=O)NCc3ccc(Oc4ccc(F)cc4)cc3)c(C)nc2c1` [ND-9758], the MIC90 in assay [1] (setting [17]) was less than 0.002 µM; in assay [2] (setting [18]), 0.003 µM (≈ 0.00117 µg/mL); in assay [3], 0.01 µM (≈ 0.00389 µg/mL); in assay [4] (setting [19]), 0.01 µM (≈ 0.00389 µg/mL).

For the molecule `Cc1ccn2c(C(=O)NCc3cccc(F)c3)c(C)nc2c1` [ND-9361], the MIC90 in [5] stood at 0.01 µg/mL (≈ 0.0336 µM); in [6], 0.019 µg/mL (≈ 0.0639 µM); in assay [7] it was 0.02 µg/mL (≈ 0.0673 µM); in assay [8] it was 0.019 µg/mL (≈ 0.0639 µM); in assay [9], 0.078 µg/mL (≈ 0.262 µM); in assay [10], 0.039 µg/mL (≈ 0.131 µM). The MIC90 in assay [11] was 0.01 µg/mL (≈ 0.0336 µM); in [12], 0.078 µg/mL (≈ 0.262 µM); in [13] it was 0.078 µg/mL (≈ 0.262 µM); in assay [14], 0.01 µg/mL (≈ 0.0336 µM); in assay [15] it was 0.019 µg/mL (≈ 0.0639 µM).

For the molecule `Cc1ccn2c(C(=O)NCc3ccccc3)c(C)nc2c1` [ND-8454, N-benzyl-2,7-dimethylimidazo[1,2-a]pyridine-3-carboxamide], the MIC90 in [5] turned out to be 0.02 µg/mL (≈ 0.0716 µM); in assay [1] (Mycobacterium tuberculosis), 0.28 µM (≈ 0.0782 µg/mL); in [16] it was 0.313 µg/mL (≈ 1.12 µM); in assay [6] it was 0.039 µg/mL (≈ 0.14 µM); in assay [2] (Mycobacterium tuberculosis), 0.33 µM (≈ 0.0922 µg/mL); in [7] it was 0.02 µg/mL (≈ 0.0716 µM). Besides, the MIC90 worked out at 0.019 µg/mL (≈ 0.068 µM) in assay [8]; 1.02 µM (≈ 0.285 µg/mL) in [3] (Mycobacterium tuberculosis); 0.078 µg/mL (≈ 0.279 µM) in [9]; 0.039 µg/mL (≈ 0.14 µM) in assay [10]; 0.039 µg/mL (≈ 0.14 µM) in assay [11]; 0.625 µg/mL (≈ 2.24 µM) in assay [12]. The MIC90 in assay [13] was found to be 0.078 µg/mL (≈ 0.279 µM); in assay [14] it was 0.039 µg/mL (≈ 0.14 µM); in assay [15], 0.312 µg/mL (≈ 1.12 µM); in [4] (Mycobacterium tuberculosis) it was 1.07 µM (≈ 0.299 µg/mL).

With `NNC(=O)c1ccncc1` [INH, Isoniazid, reference compound], the MIC90 is 0.23 µM (≈ 0.0315 µg/mL) in assay [1] (Mycobacterium tuberculosis) and more than 8 µM in assay [2] (Mycobacterium tuberculosis).
